Entries after “also recorded” stand apart in the source; their conditions may differ. Like-named read-outs stand apart in the source and are kept apart here.
Assays:
[1] = tested on: Ryr1^m1Nisw/m1Nisw E18.5 diaphragm muscle; test: EMG recordings / contractility of explanted E18.5 diaphragm muscle; type: cell-based, mouse; settings: for Minutes to Contraction (Stand. Dev): EMG recordings, electrically stimulated; for Minutes to Contraction (Stand. Dev) / contractions / contractility (in words): PMA 50 nM, AICAR 500 μM; for Minutes to Contraction (Stand. Dev) / bath application time after which contractions were elicited / contractions / contractility (in words): Glibenclamide 2 μM, 5HA 200 μM; for bath application time after which contractions were elicited / explants showing contractions: n=6 for each; for explants showing contractions: after 1 hour bath application; for contractions / contractility (in words): bath application, KCl 6 mM, BaCl2 100 μM, potassium gluconate 6 mM, BayK8644 100 nM
Procedure: (§1) In other methods, whether increasing the excitability in E18.5 Ryr1^m1Nisw/m1Nisw whole diaphragm muscle could force the DHPR-RyR1 complex to initiate contractility was examined. In one exemplary method, electromyography recordings (EMG) was performed to examine whether whole muscle in vitro was sensitive to potassium-dependent depolarization by adding potassium to the bath to depolarize the membrane. […] Potassium induced excitability can also be triggered by blocking inward rectifier potassium channels.
(§2) DHPR and RyR1 interact through orthograde and retrograde signaling, but the Ryr1^m1Nisw/m1Nisw mutation is not located within this interaction region. Orthograde signaling from DHPR opens the RyR1 channel in the SR, while retrograde signaling from RyR1 controls the gating of DHPR.
(§3) FIG. 2g represents an exemplary graph of contractility of E18.5 diaphragm muscle from Ryr1^+/+, Ryr1^m1Nisw/m1Nisw, or RyR1^tm1Alle/tm1Alle embryos. After equilibration, all samples were bathed first in 6 mM KCl, followed by wash out and then addition of 100 μm BaCl as indicated. […] FIG. 2h provides an exemplary graph of contractility of E18.5 diaphragm muscle from Ryr1^+/+, Ryr1^m1Nisw/m1Nisw and RyR1^tm1Alle/tm1Alle embryos in 6 mM potassium gluconate (n=4).
(§4) In myotubes, the application of ryanodine at levels that activate RyR increases ERK1/2 protein levels and c-Fos and c-Jun transcript levels. ERK1/2 phosphorylates the most abundant potassium transport protein, Na^+, K^+-ATPase, which, in turn, induces an increase in ion transport. Na^+, K^+-ATPase is essential for maintaining the equilibrium potential of Na^+ and K^+ at the membrane. In one exemplary method, western blot was performed to analyze certain protein levels in Ryr1^m1Nisw/m1Nisw and Ryr1^tm1Alle/tm1Alle embryonic muscle extracts with beta-tubulin served as a loading control. […] In another exemplary method, Phorbol-12-myristate-13-acetate (PMA 50 nM), an activator of ERK1/2 phosphorylation, was applied to the bath of in vitro Ryr1^m1Nisw/m1Nisw diaphragm preparation to increase the phosphorylation of Na^+, K^+-ATPase.
(§5) In certain exemplary methods, restoration of membrane potential and muscle contractions by pharmacological stimulation was tested. First, effect of stimulation of AMPK activity on restoring the resting membrane potential of the mutant diaphragm muscle was determined. An AMPK activator, e.g. 5-aminoimidazole-4-carboxamide-1-β-d-ribofuranoside (AICAR, 500 μM), was bath applied to explanted Ryr1^m1Nisw/m1Nisw E18.5 diaphragm muscles. […] Next, other pharmacological stimuli were examined. […] Glibenclamide (2 μM) and 5-hydrodecanoic acid (5HA, 200 μM) selectively bind to SUR1 and SUR2 to block ATP-sensitive K^+ channels.

[2] = tested on: Ryr1^m1Nisw/m1Nisw diaphragm muscle; test: Sharp electrode recordings of resting membrane potential of diaphragm muscle; type: cell-based, mouse; settings: for resting membrane potential (in words): Glibenclamide 2 μM, AICAR 500 μM; for resting membrane potential (in words) / resting membrane potential after treatment: PMA 50 nM; for shift in membrane potential / resting membrane potential after treatment: sharp electrode; for shift in membrane potential: PMA 50 nM vs ethanol, AICAR 500 μM n=18; for resting membrane potential after treatment: BaCl2 n=27
Procedure: Therefore, in some exemplary methods, whether voltage dependent orthograde signaling through the DHPR-RyR1 complex could be initiated through changes in membrane potential was first assessed.
as §1, §4, §5

[3] = tested on: Ryr1^tm1Alle/tm1Alle diaphragm muscle; test: Contractility of explanted E18.5 diaphragm muscle, Ryr1 null; type: cell-based, mouse; settings: same bath concentrations
Procedure: as §1, §2, §3, §4, §5

[4] = tested on: soleus muscle; test: Steady-state membrane potential (VREST) of two month old soleus muscle at varied extracellular potassium; type: cell-based, mouse; settings: for VREST after drug addition: control 0.6% potassium diet, independent of extracellular potassium
[5] = tested on: Ryr1^m1Nisw/+ mice; test: Hanging wire task (upper body muscle strength); type: in vivo, mouse; settings: four weeks of diet, Enalapril in water, or Glyburide 15 mg/kg/day oral gavage
[6] = tested on: Ryr1^m1Nisw/+ mice; test: Grip strength test (vertical digital push-pull strain gauge); type: in vivo, mouse; settings: 2 month old, four weeks of diet, Enalapril in water, or Glyburide 15 mg/kg/day oral gavage
[7] = tested on: Ryr1^m1Nisw/+ vastus lateralis muscle; test: Muscle histology (H&E central nuclei, COX staining) of vastus lateralis; type: in vivo, mouse; settings: after four weeks treatment
Source text: CCD is diagnosed and subclassified by histopathological analysis using stains such as cytochrome oxidase (COX) and nicotinamide adenine dinucleotide hydride-tetrazolium reductase (NADH-TR) which highlight mitochondria and ATP synthesis, and hematoxylin and eosin stain (H&E) to mark nuclei. In normal muscle, nuclei are located at the periphery of the myofiber and the mitochondria reside throughout the myofiber. Muscle biopsies of CCD patients show centrally located nuclei, as well as disorganized areas in the center of the myofiber called cores that lack mitochondria and are devoid of metabolic activity; these occur in some but not all muscles and are reflective of cellular damage.
Pathological examination is the hallmark diagnosis of CCD. In one exemplary method, the effects of diet on muscle histology were studied. Centrally located nuclei and decreased mitochondrial activity were detected in Ryr1^m1Nisw/+ vastus lateralis muscle compared to Ryr1^+/+ muscle in low potassium and control diets (FIGS. 5c-5k). […] In addition, the CCD phenotype was also rescued by 5-hydrodecanoic acid (5HA), which blocks ATP-sensitive K^+ channels (FIG. 4 and Table 2). […]

[8] = RyR1^m1Nisw/+ soleus muscle, bumetanide 75 μM, BaCl2 50 μM
[9] = RyR1^m1Nisw/+ soleus muscle, bumetanide 75 μM, BaCl2 50 μM, Glibenclamide 2 μM, or chronic 5.2% potassium diet
[10] = wild type muscle, low extracellular potassium / Tetanus, bumetanide 75 μM, BaCl2 50 μM, Glibenclamide 2 μM

## CCCCCC(O)CCCC(=O)O (stereo not shown) [5HA, 5-hydrodecanoic acid]
[1]
  Minutes to Contraction (Stand. Dev): 106 (52) Minutes
  bath application time after which contractions were elicited: 2 h
  explants showing contractions: 50%
  contractions / contractility (in words): rescued

## NC(=O)c1ncn([C@@H]2O[C@H](CO)[C@@H](O)[C@H]2O)c1N [AICAR, 5-aminoimidazole-4-carboxamide-1-β-d-ribofuranoside]
[2]
  resting membrane potential (in words): restore the mutant resting membrane potential to normal levels
  shift in membrane potential: −10.4+/−3.9 mV
[3]
  contractions / contractility (in words): unable to initiate contractions
[1]
  Minutes to Contraction (Stand. Dev): None
  contractions / contractility (in words): unable to initiate contractions

## [Ba+2].[Cl-].[Cl-] [BaCl2]
[2]
  resting membrane potential after treatment: −68.5 mV
[4]
  VREST phase (in words): driven to phase 2
[4]; [8]
  VREST after drug addition: −91.7+/−3.8 mV
[4]; [9]
  VREST phase (in words): driven to phase 2
[3]; listed as BaCl
  contractions / contractility (in words): failed to contract
[1]
  contractions / contractility (in words): induced stimulated bursts of activity and contractions
[1]; listed as BaCl
  contractions / contractility (in words): rescued

## COC(=O)C1=C(C)NC(C)=C([N+](=O)[O-])C1c1ccccc1C(F)(F)F (stereo not shown) [BayK8644]
[3]
  contractions / contractility (in words): no contractions occurred
[1]
  contractions / contractility (in words): induced contractions within minutes

## CCOC(=O)[C@H](CCc1ccccc1)N[C@@H](C)C(=O)N1CCC[C@H]1C(=O)O [Enalapril]
[5]
  muscle strength in hanging task (in words): increased grip strength and muscle strength; also recorded: partial rescue of muscle strength
[6]
  grip strength (in words): increased grip strength
[7]
  centrally located nuclei / muscle histology (H&E): mild improvement in muscle histology

## COc1ccc(Cl)cc1C(=O)NCCc1ccc(S(=O)(=O)NC(=O)NC2CCCCC2)cc1 [Glibenclamide]
[5]
  muscle strength in hanging task (in words): increased grip strength and muscle strength; also recorded: Increased grip and hanging strength
[2]
  resting membrane potential (in words): normalized the resting membrane potential
[4]; [9]
  VREST phase (in words): rescued the phase 2 VREST to phase 1
[4]; [10]
  VREST phase (in words): protected against phase 2 shifting from phase 1
[1]
  Minutes to Contraction (Stand. Dev): 67 (34) Minutes
  bath application time after which contractions were elicited: 2 h
  explants showing contractions: 50%
[6]
  grip strength (in words): Increased grip and hanging strength
[7]; listed as Glyburide
  centrally located nuclei / muscle histology (H&E): lack of centrally-located nuclei; also recorded: rescue the clinical and pathological manifestations of CCD; also recorded: significant reduction in the number of internal nuclei

## [Cl-].[K+] [KCl]
[3]
  contractions / contractility (in words): failed to contract
[1]
  contractions / contractility (in words): induced bursts of electrical activity and contractions; also recorded: rescued

## CCCCCCCCCCCCCC(=O)O[C@@H]1[C@@H](C)[C@@]2(O)[C@@H](C=C(CO)C[C@]3(O)C(=O)C(C)=C[C@@H]23)[C@@H]2C(C)(C)[C@]12OC(C)=O [PMA, Phorbol-12-myristate-13-acetate]
[2]
  resting membrane potential (in words): normalized the membrane potential
  resting membrane potential after treatment: −67.7 mV
  shift in membrane potential: −18.3+/−5.3 mV
[3]
  contractions / contractility (in words): no effect
[1]
  time to contraction after addition: ≤ 5 min
  Minutes to Contraction (Stand. Dev): 4 (2) Minutes
  contractions / contractility (in words): strongly elicited contractions

## CCCCNc1cc(C(=O)O)cc(S(N)(=O)=O)c1Oc1ccccc1 [bumetanide]
[4]; [8]
  VREST after drug addition: −92.3+/−4.8 mV
[4]; [9]
  VREST phase (in words): driven to phase 1
[4]; [10]
  VREST phase (in words): driven to phase 1

## O=C([O-])[C@H](O)[C@@H](O)[C@H](O)[C@H](O)CO.[K+] [potassium gluconate]
[1]
  contractions / contractility (in words): Contractions also transpired

— patent US20130273181A1, “METHODS AND COMPOSITIONS FOR DIAGNOSING AND TREATING MUSCLE MYOPATHY DISORDERS” (The Regents of the University of Colorado, a body Corporate, priority 2012, published 2013)
